Source: patent publication US20230390319A1, “INTERFERON GENE STIMULATOR COMPOSITION COMPRISING INDOLIZINE DERIVATIVE AS ACTIVE INGREDIENT” (AJOU UNIVERSITY INDUSTRY-ACADEMIC COOPERATION FOUNDATION, priority 2020, published 2023)

What was measured:
ISRE reporter signal = test: ISRE luciferase reporter assay, THP-1 cells co-treated with compound and cGAMP; assay type: cell-based, Human; settings: THP-1 cells, 20 μM of each compound, co-treated with cGAMP (1 μg/ml), 24 hours
Experimental: (§1) Human monocytic THP-1 wild-type (WT) and STING knockout (KO) cell lines were obtained from InvivoGen. Cells were cultured in 1×RPMI 1640 medium containing 10% fetal bovine serum (FBS, Hyclone), 2.05 mM L-glutamine (Hyclone) and 1% penicillin (Corning) in a humidified incubator at 37° C. under 5% CO2.
To confirm immune responses, THP-1 cells were placed in 384-well plates (Grenier), and treated with each compound and cGAMP (1 μg/ml), and after 24 hours, ISRE activity was analyzed. QUANTI-Luc assay (InvivoGen) was performed using the cell culture supernatant to confirm the luciferase reporter gene signal. Fluorescent signals were measured using a TECAN micro plate reader SPARK, and the results were normalized to DMSO control.
(§2) THP-1 cells were co-treated with each of 86 indolizine derivatives and a very small amount of cGAMP (1 μg/ml), the immune response of the THP-1 cells was examined by ISRE reporter assay, and the cytotoxicity of co-treatment was also evaluated (Table 1). All results were compared by normalization to the reporter assay results obtained by treatment with cGAMP alone. […] Thus, Compound 42 was used in subsequent experiments.

THP-1 cells = test: Cell viability assay (CellTiter Clo) in THP-1 cells; assay type: cell-based, Human; settings: THP-1 cells, 20 μM of each compound, co-treated with cGAMP (1 μg/ml)
Experimental: as §1
Cells were analyzed using CellTiter Clo (CTG, Promega). […] was measured using a TECAN micro plate reader SPARK. Results were normalized to DMSO control.
as §2

Row | SMILES | Normalized RU (relative unit of ISRE reporter signal) (ISRE reporter signal) | Normalized cell viability (THP-1 cells)
1 | O=C(c1ccc(C(F)(F)F)cc1)c1cc(-c2ccc(C(F)(F)F)cc2)c2cc(C(F)(F)F)ccn12 [Compound 1] | 1.46 | 1.10
2 | CC(=O)c1ccc(-c2cc(C(=O)c3ccc(C(F)(F)F)cc3)n3ccc(C(F)(F)F)cc23)cc1 [Compound 2] | 1.42 | 1.03
3 | O=C(c1ccc(C(F)(F)F)cc1)c1cc(-c2ccccc2)c2cc(C(F)(F)F)ccn12 [Compound 3] | 1.40 | 1.04
4 | COc1ccc(-c2cc(C(=O)c3ccc(C(F)(F)F)cc3)n3ccc(C(F)(F)F)cc23)cc1 [Compound 4] | 1.33 | 1.05
5 | CN(C)c1ccc(-c2cc(C(=O)c3ccc(C(F)(F)F)cc3)n3ccc(C(F)(F)F)cc23)cc1 [Compound 5] | 1.58 | 1.05
6 | O=C(c1ccccc1)c1cc(-c2ccc(C(F)(F)F)cc2)c2cc(C(F)(F)F)ccn12 [Compound 6] | 1.38 | 1.19
7 | CC(=O)c1ccc(-c2cc(C(=O)c3ccccc3)n3ccc(C(F)(F)F)cc23)cc1 [Compound 7] | 1.54 | 1.20
8 | O=C(c1ccccc1)c1cc(-c2ccccc2)c2cc(C(F)(F)F)ccn12 [Compound 8] | 1.18 | 1.06
9 | COc1ccc(-c2cc(C(=O)c3ccccc3)n3ccc(C(F)(F)F)cc23)cc1 [Compound 9] | 1.21 | 1.03
10 | CN(C)c1ccc(-c2cc(C(=O)c3ccccc3)n3ccc(C(F)(F)F)cc23)cc1 [Compound 10] | 1.67 | 1.21
11 | COc1ccc(C(=O)c2cc(-c3ccc(C(F)(F)F)cc3)c3cc(C(F)(F)F)ccn23)cc1 [Compound 11] | 2.02 | 1.16
12 | COc1ccc(C(=O)c2cc(-c3ccc(C(C)=O)cc3)c3cc(C(F)(F)F)ccn23)cc1 [Compound 12] | 1.31 | 1.25
13 | COc1ccc(C(=O)c2cc(-c3ccccc3)c3cc(C(F)(F)F)ccn23)cc1 [Compound 13] | 1.62 | 1.14
14 | COc1ccc(C(=O)c2cc(-c3ccc(OC)cc3)c3cc(C(F)(F)F)ccn23)cc1 [Compound 14] | 1.48 | 1.30
15 | COc1ccc(C(=O)c2cc(-c3ccc(N(C)C)cc3)c3cc(C(F)(F)F)ccn23)cc1 [Compound 15] | 1.18 | 1.17
16 | CCN(CC)c1ccc(C(=O)c2cc(-c3ccc(C(F)(F)F)cc3)c3cc(C(F)(F)F)ccn23)cc1 [Compound 16] | 1.66 | 1.22
17 | CCN(CC)c1ccc(C(=O)c2cc(-c3ccc(C(C)=O)cc3)c3cc(C(F)(F)F)ccn23)cc1 [Compound 17] | 1.45 | 1.29
18 | CCN(CC)c1ccc(C(=O)c2cc(-c3ccccc3)c3cc(C(F)(F)F)ccn23)cc1 [Compound 18] | 1.85 | 1.17
19 | CCN(CC)c1ccc(C(=O)c2cc(-c3ccc(OC)cc3)c3cc(C(F)(F)F)ccn23)cc1 [Compound 19] | 1.58 | 1.29
20 | CCN(CC)c1ccc(C(=O)c2cc(-c3ccc(N(C)C)cc3)c3cc(C(F)(F)F)ccn23)cc1 [Compound 20] | 1.46 | 1.05
21 | CC(=O)c1ccn2c(C(=O)c3ccc(C(F)(F)F)cc3)cc(-c3ccc(C(F)(F)F)cc3)c2c1 [Compound 21] | 1.86 | 1.19
22 | CC(=O)c1ccc(-c2cc(C(=O)c3ccc(C(F)(F)F)cc3)n3ccc(C(C)=O)cc23)cc1 [Compound 22] | 1.31 | 1.09
23 | CC(=O)c1ccn2c(C(=O)c3ccc(C(F)(F)F)cc3)cc(-c3ccccc3)c2c1 [Compound 23] | 1.23 | 1.11
24 | COc1ccc(-c2cc(C(=O)c3ccc(C(F)(F)F)cc3)n3ccc(C(C)=O)cc23)cc1 [Compound 24] | 1.33 | 1.21

Row | SMILES | Normalized RU (relative unit of ISRE reporter signal) (ISRE reporter signal) | Normalized cell viability (THP-1 cells)
25 | CC(=O)c1ccn2c(C(=O)c3ccc(C(F)(F)F)cc3)cc(-c3ccc(N(C)C)cc3)c2c1 [Compound 25] | 1.75 | 1.12
26 | CC(=O)c1ccn2c(C(=O)c3ccccc3)cc(-c3ccc(C(F)(F)F)cc3)c2c1 [Compound 26] | 1.60 | 1.21
27 | CC(=O)c1ccc(-c2cc(C(=O)c3ccccc3)n3ccc(C(C)=O)cc23)cc1 [Compound 27] | 1.18 | 1.17
28 | CC(=O)c1ccn2c(C(=O)c3ccccc3)cc(-c3ccccc3)c2c1 [Compound 28] | 1.69 | 1.13
29 | COc1ccc(-c2cc(C(=O)c3ccccc3)n3ccc(C(C)=O)cc23)cc1 [Compound 29] | 1.00 | 1.20
30 | CC(=O)c1ccn2c(C(=O)c3ccccc3)cc(-c3ccc(N(C)C)cc3)c2c1 [Compound 30] | 1.33 | 1.26
31 | COc1ccc(C(=O)c2cc(-c3ccc(C(F)(F)F)cc3)c3cc(C(C)=O)ccn23)cc1 [Compound 31] | 3.42 | 1.33
32 | COc1ccc(C(=O)c2cc(-c3ccc(C(C)=O)cc3)c3cc(C(C)=O)ccn23)cc1 [Compound 32] | 2.91 | 1.11
33 | COc1ccc(C(=O)c2cc(-c3ccccc3)c3cc(C(C)=O)ccn23)cc1 [Compound 33] | 2.18 | 1.22
34 | COc1ccc(C(=O)c2cc(-c3ccc(OC)cc3)c3cc(C(C)=O)ccn23)cc1 [Compound 34] | 1.52 | 1.26
35 | COc1ccc(C(=O)c2cc(-c3ccc(N(C)C)cc3)c3cc(C(C)=O)ccn23)cc1 [Compound 35] | 2.22 | 1.26
36 | CCN(CC)c1ccc(C(=O)c2cc(-c3ccc(C(F)(F)F)cc3)c3cc(C(C)=O)ccn23)cc1 [Compound 36] | 3.37 | 1.27
37 | CCN(CC)c1ccc(C(=O)c2cc(-c3ccc(C(C)=O)cc3)c3cc(C(C)=O)ccn23)cc1 [Compound 37] | 1.62 | 1.25
38 | CCN(CC)c1ccc(C(=O)c2cc(-c3ccccc3)c3cc(C(C)=O)ccn23)cc1 [Compound 38] | 1.77 | 1.34
39 | CCN(CC)c1ccc(C(=O)c2cc(-c3ccc(OC)cc3)c3cc(C(C)=O)ccn23)cc1 [Compound 39] | 1.47 | 1.18
40 | CCN(CC)c1ccc(C(=O)c2cc(-c3ccc(N(C)C)cc3)c3cc(C(C)=O)ccn23)cc1 [Compound 40] | 1.09 | 1.17
41 | O=C(c1ccc(C(F)(F)F)cc1)c1cc(-c2ccc(C(F)(F)F)cc2)c2ccccn12 [Compound 41] | 3.85 | 1.25
42 | O=C(c1ccc(C(F)(F)F)cc1)c1cc(-c2ccccc2)c2ccccn12 [Compound 43] | 1.08 | 1.13
43 | COc1ccc(-c2cc(C(=O)c3ccc(C(F)(F)F)cc3)n3ccccc23)cc1 [Compound 44] | 0.89 | 1.24
44 | CN(C)c1ccc(-c2cc(C(=O)c3ccc(C(F)(F)F)cc3)n3ccccc23)cc1 [Compound 45] | 1.28 | 1.22
45 | O=C(c1ccccc1)c1cc(-c2ccc(C(F)(F)F)cc2)c2ccccn12 [Compound 46] | 1.08 | 1.25
46 | CC(=O)c1ccc(-c2cc(C(=O)c3ccccc3)n3ccccc23)cc1 [Compound 47] | 1.15 | 1.12
47 | O=C(c1ccccc1)c1cc(-c2ccccc2)c2ccccn12 [Compound 48] | 1.37 | 1.18
48 | COc1ccc(-c2cc(C(=O)c3ccccc3)n3ccccc23)cc1 [Compound 49] | 1.17 | 1.21
